Inhibition data for three molecules are collected here from patent publication US8735584B2 (Merck Patent GmbH, priority 2008, dated 2014).

One may read the inhibition as how much of the control response was suppressed.

Holding throughout (format): biochemical
Assay [1] concerns the target T1, MAPKAPK2 (Homo sapiens, UniProt P49137).
T1 construct: purchased Caliper Life Sciences
Put plainly: Desktop Profiler kinase panel, MAPKAPK2. Conditions: 10 micromolar concentration of the compound; read-out: Percent Inhibition MAPKAPK2. The protocol:
(§1) The Aurora assays described here are performed on two Caliper Life Sciences systems: the LC3000 and the Desktop Profiler. These provide data on enzyme activity via measurement of the relative amounts of phosphorylated or unphosphorylated fluorescently labelled substrate peptide at the end of an enzymatic reaction. These different states of peptide are resolved by applying a potential difference across the sample. The presence of the charged phosphate group on the product (as opposed to the substrate) causes a different peptide mobility between the two peptides. This is visualized by excitation of the fluorescent label on the substrate and product peptides and represented as peaks within the analysis software.
(§2) The Desktop Profiler utilizes the same principle as the LC3000 for calculating percentage conversion of a substrate to product. Caliper Life Sciences provides proprietary flash frozen pre-made 384 well plates containing selected kinases. Each column in the 384 well plate contains a particular selected kinase. A second plate, the ‘substrate plate’ contains a mix of fluorescently labeled peptide substrate and ATP. […]
(§3) Reading of the plate in the Profiler is identical to the LC3000, and the ratio between substrate and product peaks provides the activity of the enzyme in that well. […]

Assay [2] deals with T2, PRAK (Homo sapiens, UniProt Q8IW41).
T2 construct: purchased Caliper Life Sciences
T2 sequence (Q8IW41 1-473): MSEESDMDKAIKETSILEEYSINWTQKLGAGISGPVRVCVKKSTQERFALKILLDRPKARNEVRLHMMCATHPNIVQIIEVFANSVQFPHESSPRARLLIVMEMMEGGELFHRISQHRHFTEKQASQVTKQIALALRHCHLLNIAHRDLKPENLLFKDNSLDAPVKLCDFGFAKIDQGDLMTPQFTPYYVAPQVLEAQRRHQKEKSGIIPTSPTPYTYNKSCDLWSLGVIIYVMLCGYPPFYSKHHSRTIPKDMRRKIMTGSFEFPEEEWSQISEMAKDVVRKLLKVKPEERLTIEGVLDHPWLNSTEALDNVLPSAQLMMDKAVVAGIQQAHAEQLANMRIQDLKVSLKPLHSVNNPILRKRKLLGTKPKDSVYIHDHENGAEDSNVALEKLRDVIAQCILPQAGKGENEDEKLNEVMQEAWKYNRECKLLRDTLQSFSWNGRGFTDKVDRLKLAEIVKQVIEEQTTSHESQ
In words: Desktop Profiler kinase panel, PRAK. Conditions: 10 micromolar concentration of the compound; read-out: Percent Inhibition PRAK. The protocol: as §1
(§4) The Desktop Profiler utilizes the same principle as the LC3000 for calculating percentage conversion of a substrate to product. Caliper Life Sciences provides proprietary flash frozen pre-made 384 well plates containing selected kinases. Each column in the 384 well plate contains a particular selected kinase. A second plate, the ‘substrate plate’ contains a mix of fluorescently labeled peptide substrate and ATP. These are arranged in columns so that transfer for substrate plate to enzyme plate provides the correct enzyme with the correct substrate/ATP concentration. Compounds are added to a thawed enzyme plate in the desired format, in single concentrations. Reactions are initiated by transfer of the substrate/ATP mix from the substrate plate. The enzyme plate is incubated for 90 mins at 25 C. The reaction is stopped by addition of 70 ul of Stop Buffer (100 mM HEPES pH 7.5, 0.015% Brij-35, 10 mM EDTA (Sigma, E7889)).
Reading of the plate in the Profiler is identical to the LC3000, and the ratio between substrate and product peaks provides the activity of the enzyme in that well. This is best represented by a plate heat map which colors each well by percent inhibition as compared to positive and negative controls (no inhibitors and no ATP respectively). […]

Assay [3] addresses T3, GSK3b (Homo sapiens, UniProt P49841).
T3 construct: purchased Caliper Life Sciences
In words: Desktop Profiler kinase panel, GSK3b. Conditions: 10 micromolar concentration of the compound; read-out: Percent Inhibition GSK3b. The procedure:
as §1, §4
(§5) Reading of the plate in the Profiler is identical to the LC3000, and the ratio between substrate and product peaks provides the activity of the enzyme in that well. This is best represented by a plate heat map which colors each well by percent inhibition as compared to positive and negative controls (no inhibitors and no ATP respectively).
(§6) In the following Tables 3a-4-b, which show the results of the desktop profiler measurements, “+” means 50-70% inhibition, “++” means 70-90% inhibition, and “+++” means >90% inhibition. The enzymes tested for profiling were ABL, AKT1, AKT2, AurA, CHK1, CHK2, CK1d, Erk1, Erk2, FYN, GSK3b, INSR, LCK, LYN, MAPKAPK2, MET, MSK1, p38a, PKA, PKCz, PKD2, PRAK, RSK1 and SRC.

The target of assay [4] is T4, AKT2 (Homo sapiens, UniProt P31751).
T4 construct: purchased Caliper Life Sciences
T4 sequence (P31751 whole entry, species assumed): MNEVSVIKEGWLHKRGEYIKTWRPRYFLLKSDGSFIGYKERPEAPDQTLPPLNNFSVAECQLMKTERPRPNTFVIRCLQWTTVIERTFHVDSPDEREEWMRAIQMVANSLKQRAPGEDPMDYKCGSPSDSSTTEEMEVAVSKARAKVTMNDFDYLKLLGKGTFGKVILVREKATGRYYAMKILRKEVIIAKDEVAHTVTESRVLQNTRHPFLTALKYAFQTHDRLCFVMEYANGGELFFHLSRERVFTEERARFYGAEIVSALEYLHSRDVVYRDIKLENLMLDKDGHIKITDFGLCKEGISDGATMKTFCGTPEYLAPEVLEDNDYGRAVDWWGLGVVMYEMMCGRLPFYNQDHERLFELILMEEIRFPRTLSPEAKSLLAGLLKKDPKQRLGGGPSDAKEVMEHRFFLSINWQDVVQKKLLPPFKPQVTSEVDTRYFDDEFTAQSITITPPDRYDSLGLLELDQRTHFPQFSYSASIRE
Put plainly: Desktop Profiler kinase panel, AKT2. Conditions: 10 micromolar concentration of the compound; read-out: Percent Inhibition AKT2. The procedure: as §1, §4, §5, §6

The target of assay [5] is T5, PKA (Homo sapiens, UniProt P17612).
T5 construct: purchased Caliper Life Sciences
Put plainly: Desktop Profiler kinase panel, PKA. As to conditions: 10 micromolar concentration of the compound; read-out: Percent Inhibition PKA. The protocol:
as §1, §4, §5, §6

Assay [6] concerns the target T6, AKT1 (Homo sapiens, UniProt P31749).
T6 construct: purchased Caliper Life Sciences
In words: Desktop Profiler kinase panel, AKT1. As to conditions: 10 micromolar concentration of the compound; read-out: Percent Inhibition AKT1. The procedure: as §1, §2, §3

For assay [7], the target named is T7, Erk1 (Homo sapiens, UniProt P27361).
T7 construct: purchased Caliper Life Sciences
T7 sequence (P27361 whole entry, species assumed): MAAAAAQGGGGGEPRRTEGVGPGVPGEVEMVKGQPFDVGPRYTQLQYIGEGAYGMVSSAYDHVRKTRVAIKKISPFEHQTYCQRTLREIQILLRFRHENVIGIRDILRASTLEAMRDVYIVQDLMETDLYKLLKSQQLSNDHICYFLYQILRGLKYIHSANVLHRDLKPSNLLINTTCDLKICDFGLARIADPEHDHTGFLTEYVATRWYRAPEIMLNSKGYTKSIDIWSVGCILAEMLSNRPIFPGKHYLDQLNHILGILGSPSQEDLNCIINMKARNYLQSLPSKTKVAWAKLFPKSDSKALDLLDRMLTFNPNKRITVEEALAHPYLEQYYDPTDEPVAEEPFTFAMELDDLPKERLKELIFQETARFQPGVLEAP
Put plainly: Desktop Profiler kinase panel, Erk1. Conditions: 10 micromolar concentration of the compound; read-out: Percent Inhibition Erk1. The protocol: as §1, §2, §3

For assay [8], the target named is T8, Erk2 (Homo sapiens, UniProt P28482).
T8 construct: purchased Caliper Life Sciences
T8 sequence (P28482 whole entry, species assumed): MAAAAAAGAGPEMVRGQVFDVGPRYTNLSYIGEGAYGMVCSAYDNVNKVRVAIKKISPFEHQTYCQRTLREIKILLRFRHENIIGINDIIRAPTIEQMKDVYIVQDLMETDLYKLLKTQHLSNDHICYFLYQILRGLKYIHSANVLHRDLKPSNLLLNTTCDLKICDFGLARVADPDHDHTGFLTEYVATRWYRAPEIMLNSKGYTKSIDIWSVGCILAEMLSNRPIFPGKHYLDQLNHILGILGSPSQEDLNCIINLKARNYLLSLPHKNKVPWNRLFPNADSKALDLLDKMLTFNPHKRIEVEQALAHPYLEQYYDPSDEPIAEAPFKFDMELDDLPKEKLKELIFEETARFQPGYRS
In words: Desktop Profiler kinase panel, Erk2. Conditions: 10 micromolar concentration of the compound; read-out: Percent Inhibition Erk2. The procedure:
as §1, §2, §3

Assay [9] addresses T9, LCK (Homo sapiens, UniProt P06239).
T9 construct: purchased Caliper Life Sciences
In words: Desktop Profiler kinase panel, LCK. As to conditions: 10 micromolar concentration of the compound; read-out: Percent Inhibition LCK. The protocol:
as §1, §4, §5, §6

In assay [10] the target is T10, MET (Homo sapiens, UniProt P08581).
T10 construct: purchased Caliper Life Sciences
T10 sequence (P08581 25-1390): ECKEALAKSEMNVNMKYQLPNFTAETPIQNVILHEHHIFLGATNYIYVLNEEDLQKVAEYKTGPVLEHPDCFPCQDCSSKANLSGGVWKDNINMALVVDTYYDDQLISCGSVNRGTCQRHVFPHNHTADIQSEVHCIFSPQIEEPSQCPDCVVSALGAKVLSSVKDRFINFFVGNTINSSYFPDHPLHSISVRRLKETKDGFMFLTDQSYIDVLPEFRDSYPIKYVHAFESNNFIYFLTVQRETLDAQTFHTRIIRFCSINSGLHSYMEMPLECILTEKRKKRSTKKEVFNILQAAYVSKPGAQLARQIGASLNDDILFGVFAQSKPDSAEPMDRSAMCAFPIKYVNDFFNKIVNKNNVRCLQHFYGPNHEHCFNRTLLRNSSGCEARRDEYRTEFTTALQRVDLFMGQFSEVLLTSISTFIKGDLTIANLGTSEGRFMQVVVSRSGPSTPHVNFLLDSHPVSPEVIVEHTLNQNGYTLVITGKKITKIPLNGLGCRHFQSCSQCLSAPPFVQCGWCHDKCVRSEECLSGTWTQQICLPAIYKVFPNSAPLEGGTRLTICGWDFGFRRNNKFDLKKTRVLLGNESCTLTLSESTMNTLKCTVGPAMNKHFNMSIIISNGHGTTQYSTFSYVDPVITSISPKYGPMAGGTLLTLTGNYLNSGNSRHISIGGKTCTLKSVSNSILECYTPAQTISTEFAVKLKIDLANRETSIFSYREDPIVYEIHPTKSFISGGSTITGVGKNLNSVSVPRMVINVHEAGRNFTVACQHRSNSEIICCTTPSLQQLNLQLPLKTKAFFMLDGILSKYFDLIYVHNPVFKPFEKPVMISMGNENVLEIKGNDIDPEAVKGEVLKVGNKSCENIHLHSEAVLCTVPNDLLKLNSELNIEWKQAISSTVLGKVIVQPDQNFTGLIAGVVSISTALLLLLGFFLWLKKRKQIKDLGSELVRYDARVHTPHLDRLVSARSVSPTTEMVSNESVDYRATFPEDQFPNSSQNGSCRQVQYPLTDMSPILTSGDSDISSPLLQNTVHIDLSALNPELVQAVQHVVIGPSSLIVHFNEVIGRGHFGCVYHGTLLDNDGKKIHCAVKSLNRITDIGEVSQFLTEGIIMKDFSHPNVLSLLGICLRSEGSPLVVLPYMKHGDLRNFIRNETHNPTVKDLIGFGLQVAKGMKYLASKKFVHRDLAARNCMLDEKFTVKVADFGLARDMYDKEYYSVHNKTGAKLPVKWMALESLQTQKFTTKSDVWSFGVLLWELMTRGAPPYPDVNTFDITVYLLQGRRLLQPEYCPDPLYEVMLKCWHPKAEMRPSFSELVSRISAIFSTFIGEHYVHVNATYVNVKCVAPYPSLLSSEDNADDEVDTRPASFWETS
In words: Desktop Profiler kinase panel, MET. Conditions: 10 micromolar concentration of the compound; read-out: Percent Inhibition MET. The protocol:
as §1, §2, §3

For assay [11], the target named is T11, PKCz (Homo sapiens, UniProt Q05513).
T11 construct: purchased Caliper Life Sciences
T11 sequence (Q05513 whole entry): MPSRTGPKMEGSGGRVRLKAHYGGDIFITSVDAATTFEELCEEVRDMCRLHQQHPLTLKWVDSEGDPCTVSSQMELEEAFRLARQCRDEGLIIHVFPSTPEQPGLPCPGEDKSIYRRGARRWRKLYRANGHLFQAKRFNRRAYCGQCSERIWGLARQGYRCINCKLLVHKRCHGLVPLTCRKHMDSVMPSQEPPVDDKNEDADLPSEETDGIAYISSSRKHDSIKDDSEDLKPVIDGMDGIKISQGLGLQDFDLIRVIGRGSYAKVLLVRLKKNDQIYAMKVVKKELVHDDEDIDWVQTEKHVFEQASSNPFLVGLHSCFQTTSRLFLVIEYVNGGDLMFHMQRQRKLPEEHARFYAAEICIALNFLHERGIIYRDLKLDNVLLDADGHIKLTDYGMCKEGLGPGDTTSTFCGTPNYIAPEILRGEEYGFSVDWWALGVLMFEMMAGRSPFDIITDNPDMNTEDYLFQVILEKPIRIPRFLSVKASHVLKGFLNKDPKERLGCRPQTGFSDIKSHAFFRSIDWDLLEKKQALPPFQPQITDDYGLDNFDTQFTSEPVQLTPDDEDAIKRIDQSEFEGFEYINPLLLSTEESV
Put plainly: Desktop Profiler kinase panel, PKCz. As to conditions: 10 micromolar concentration of the compound; read-out: Percent Inhibition PKCz. The procedure: as §1, §2, §3

Assay [12] deals with T12, p38a (Homo sapiens, UniProt Q16539).
T12 construct: purchased Caliper Life Sciences
In words: Desktop Profiler kinase panel, p38a. Conditions: 10 micromolar concentration of the compound; read-out: Percent Inhibition p38a. The procedure:
as §1, §2, §3

T3 sequence (P49841 whole entry, species assumed): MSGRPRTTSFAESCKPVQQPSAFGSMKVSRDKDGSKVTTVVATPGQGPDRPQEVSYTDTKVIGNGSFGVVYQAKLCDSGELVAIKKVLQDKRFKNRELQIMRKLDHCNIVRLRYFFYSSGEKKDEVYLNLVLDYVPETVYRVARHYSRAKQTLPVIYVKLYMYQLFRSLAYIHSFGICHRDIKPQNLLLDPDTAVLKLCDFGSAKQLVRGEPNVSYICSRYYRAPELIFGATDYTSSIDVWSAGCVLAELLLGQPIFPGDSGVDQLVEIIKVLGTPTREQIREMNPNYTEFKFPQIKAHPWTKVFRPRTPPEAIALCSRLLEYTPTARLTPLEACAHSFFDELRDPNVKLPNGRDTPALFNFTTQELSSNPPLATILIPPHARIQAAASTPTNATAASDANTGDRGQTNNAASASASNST
T6 sequence (P31749 whole entry, species assumed): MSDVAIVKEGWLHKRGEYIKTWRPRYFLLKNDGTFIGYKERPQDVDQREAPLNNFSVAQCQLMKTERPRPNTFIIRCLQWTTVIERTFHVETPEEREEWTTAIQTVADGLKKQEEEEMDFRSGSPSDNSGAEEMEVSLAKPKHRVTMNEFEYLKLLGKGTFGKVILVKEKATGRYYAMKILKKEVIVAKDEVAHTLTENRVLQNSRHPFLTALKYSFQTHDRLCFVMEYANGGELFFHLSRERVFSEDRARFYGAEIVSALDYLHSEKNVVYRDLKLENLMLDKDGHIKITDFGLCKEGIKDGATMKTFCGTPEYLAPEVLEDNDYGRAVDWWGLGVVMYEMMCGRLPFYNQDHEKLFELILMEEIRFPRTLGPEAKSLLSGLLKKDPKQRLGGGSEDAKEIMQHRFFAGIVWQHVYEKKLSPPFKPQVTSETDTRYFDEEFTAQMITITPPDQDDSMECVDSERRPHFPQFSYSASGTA
T9 sequence (P06239 whole entry, species assumed): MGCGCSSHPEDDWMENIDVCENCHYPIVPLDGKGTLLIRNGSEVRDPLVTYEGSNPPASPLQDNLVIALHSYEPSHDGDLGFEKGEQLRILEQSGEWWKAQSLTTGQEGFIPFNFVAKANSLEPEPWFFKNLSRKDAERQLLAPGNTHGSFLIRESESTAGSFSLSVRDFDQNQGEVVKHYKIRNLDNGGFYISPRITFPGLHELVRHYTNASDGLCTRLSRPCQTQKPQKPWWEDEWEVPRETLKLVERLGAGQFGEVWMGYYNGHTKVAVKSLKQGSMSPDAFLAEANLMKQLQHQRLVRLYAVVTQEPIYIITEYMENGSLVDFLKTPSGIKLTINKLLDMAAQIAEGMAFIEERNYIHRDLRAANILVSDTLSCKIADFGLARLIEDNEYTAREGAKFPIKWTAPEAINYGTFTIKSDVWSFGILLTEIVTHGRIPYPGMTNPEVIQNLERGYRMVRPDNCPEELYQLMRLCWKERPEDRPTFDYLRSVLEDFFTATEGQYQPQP
T1 sequence (P49137 whole entry, species assumed): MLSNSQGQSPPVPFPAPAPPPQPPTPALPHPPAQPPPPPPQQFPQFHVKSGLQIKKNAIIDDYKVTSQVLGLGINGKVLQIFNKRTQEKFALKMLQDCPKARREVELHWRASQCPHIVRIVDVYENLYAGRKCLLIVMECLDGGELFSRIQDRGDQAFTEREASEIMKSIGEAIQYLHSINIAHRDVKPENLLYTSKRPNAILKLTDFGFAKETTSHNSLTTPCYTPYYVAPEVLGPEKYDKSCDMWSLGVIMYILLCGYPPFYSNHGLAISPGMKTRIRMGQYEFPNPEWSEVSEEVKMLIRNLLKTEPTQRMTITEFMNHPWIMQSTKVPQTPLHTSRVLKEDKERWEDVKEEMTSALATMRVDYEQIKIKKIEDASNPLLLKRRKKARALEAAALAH

With `NC(=O)c1ccc(Oc2ccc3c(=O)[nH]c4ncccc4c3c2)cc1` [Example 82], the inhibition at 10 µM in assay [1] was more than 90%; in [2], more than 90%; in assay [3] it was 70 to 90%; in [4] it was 50 to 70%; in [5], 70 to 90%.

`O=c1[nH]c2ncccc2c2cc(Nc3cccc(F)c3)ccc12` [Example 31, 9-(3-Fluoro-phenylamino)-5H-benzo[c][1,8]naphthyridin-6-one]: the inhibition at 10 µM in [6] is 70 to 90%; in assay [2], 70 to 90%; in assay [7], 70 to 90%; in assay [8], 70 to 90%; in assay [3] it was 70 to 90%; in assay [9], more than 90%. Further, the inhibition at 10 µM in [4] and in assay [5] was more than 90% in each case.

For `CC(=O)Nc1ccc(Oc2ccc3c(=O)[nH]c4ncccc4c3c2)cc1` [Example 81, N-[4-(6-Oxo-5,6-dihydro-benzo[c][1,8]naphthyridin-9-yloxy)-phenyl]-acetamide], the inhibition at 10 µM in [10] was more than 90%; in assay [6] it was more than 90%; in assay [1] it was 50 to 70%; in [2], 70 to 90%; in assay [11], 50 to 70%; in [7] it was 70 to 90%. Moreover, the inhibition at 10 µM in assay [8] was 70 to 90%; in assay [12], 50 to 70%; in [3], more than 90%; in [9], more than 90%; in [4] it was more than 90%; in assay [5], more than 90%.
